Experimental data: the METLIN SMRT retention time set (Domingo-Almenara et al. 2019)

Experiment: gradient 5% acetonitrile 3 min, to 50% in 2 min, to 85% in 15 min, held 3 min, 100 µL/min
Details: column: Zorbax Extend-C18 2.1 x 50 mm; eluents: water / acetonitrile, 0.1% formic acid
Summary of the method: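 Retention time was recorded from adduct peaks, which were picked computationally and each inspected manually. Pure standards ran in mixtures of ~100 molecules on HPLC coupled to a quadrupole time-of-flight mass spectrometer, in positive and negative ionization mode, through a Zorbax Extend-C18 column (2.1 × 50 mm, 1.8 μm) at 100 μL/min. Eluents were water and acetonitrile, each with 0.1% formic acid.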

RP-LC retention time [s]	SMILES
905	Cn1ncc2c(N3CCCC3)nc(C(=O)NCc3ccc(C(F)(F)F)cc3)nc21
1070	CCn1cc2c3c(cccc31)CN(C(=O)Nc1cc(C)cc(C)c1)CC2
1030	Cc1cccc(-c2cc3n(n2)CCCN(C(=O)Cc2cccc(C(F)(F)F)c2)C3)c1
1050	O=C(Nc1ccc(F)c(F)c1)C1CCN(S(=O)(=O)c2ccc(-c3noc(C4CC4)n3)cc2)CC1
632	O=C(c1ccccc1OCC1CCCN(C2CCC2)C1)N1CCCCC1 (configuration not stated)
1090	CC(C)Cn1c(=O)c(C(=O)NC2CCCCCC2)nc2cccnc21
687	Cn1nnc2c(N3CCN(C(=O)c4c(F)cccc4Cl)CC3)ncnc21
709	O=C(NC1CC1)c1nc2ccccn2c1-c1ccc(F)cc1
956	O=C(C1=NN(Cc2cc(F)cc(F)c2)c2ccccc2S1(=O)=O)N1CCCCC1
810	O=C(CSc1ccc(F)cc1)N1CCCC(c2nnc(-c3ccc4c(c3)OCO4)o2)C1 (configuration not stated)
829	CC1Oc2ccc(S(=O)(=O)N3CCC(C(=O)Nc4ccc(F)cc4)CC3)cc2NC1=O (configuration not stated)
1010	Cc1cc2ccccc2n1CCNC(=O)C(=O)c1cn(CC(=O)N2CCCC2)c2ccccc12
894	COc1ccc(Cc2nc(-c3ccc4c(c3)nc(C)c(=O)n4C)no2)cc1OC
592	CC(C)C1c2nccn2CCCN1C(=O)c1cc(C2CC2)[nH]n1 (configuration not stated)
987	Cc1ccc(NC(=O)Cn2cc3c(n2)CCC(C)C3)c(C)c1 (configuration not stated)
648	O=C(CNC(=O)Cc1ccccc1)NCc1[nH]nc2ccccc12
613	O=C(CSc1nc2ccccc2[nH]1)Nc1nccs1
655	O=C(Nc1cccc(C(F)(F)F)c1)Nc1c(-c2ccncc2)nc2ccccn12

RP-LC retention time [s]	SMILES
585	CCC(Oc1ccc(=O)n(-c2ccc(F)cc2)n1)C(=O)NCCN1CCN(C)CC1 (configuration not stated)
1010	COc1cc(C(=O)Nc2sc3c(c2C(N)=O)CCC(C)C3)cc(OC)c1OC (configuration not stated)
961	COC(=O)[C@@H](N)CSC/C=C(\C)CC/C=C(\C)CCC=C(C)C
996	Cc1cccc(NC(=O)c2cn(CC(=O)NC3CCCC3)c3nc(C)ccc3c2=O)c1
923	CCCN(C)c1ccc2ncc(=O)n(C)c2n1
1080	COc1ccc(-c2ccc(=O)n(Cc3nc(-c4ccc(Cl)c(F)c4)no3)n2)cc1
1020	CCc1nc(-c2csc(S(=O)(=O)N3CCC(C(=O)Nc4ccc(C)cc4)CC3)c2)no1
605	Cc1ccc(-c2nnc(C)c(NCc3ccccn3)n2)cc1
684	Cc1cccc(C(=O)N2C(C(=O)NCC3CCCO3)COC23CCN(C(=O)C(C)(C)C)CC3)c1 (configuration not stated)
711	O=C(NCc1ccco1)C1CCN(C(=O)c2ncn3c2COC(c2ccc(F)cc2)C3)CC1 (configuration not stated)
782	O=C(NC1CCN(c2nnc3ccc(C(F)(F)F)cn23)CC1)c1cccc(F)c1
1270	Cc1ccc(-c2csc(NC(=O)COc3cc(C)cc(C)c3)n2)cc1
917	Cc1cccc(N2C(=O)CN(Cc3ccccc3Cl)[C@H]3CS(=O)(=O)C[C@H]32)c1
674	O=C(NCC1CCN(C(=O)Nc2ccc(F)cc2)CC1)c1ccccn1
624	COc1cccc(-c2noc(Cn3ccnc3C)n2)c1
873	COc1cccc(-c2nc3ccc(Cl)cn3c2Nc2ccc(Cl)cc2)c1
628	COc1ccc(CCNC(=O)CSc2ncnc3c2nnn3C)cc1OC
580	CC(NC(=O)c1ccc2c(c1)OCO2)C(=O)N1CCN(c2ccccn2)CC1 (configuration not stated)

SMILES	RP-LC retention time [s]
COc1ccc2c(c1O)[C@]13CCN(C)[C@H](C2)[C@@H]1CCC(=O)C3	622
